Assay results reported in ChEMBL document CHEMBL5034027, “Synthesis and evaluation of stereoisomers of methylated catechin and epigallocatechin derivatives on modulating P-glycoprotein-mediated multidrug resistance in cancers” (Eur J Med Chem, 2021).

What was measured:
[1] = tested on: L929; assay: Cytotoxicity against mouse L929 cells assessed as reduction in cell viability incubated for 72 hrs by MTS assay; format: cell-based; conditions: L929, 72 h
[2] = tested on: P-gp; assay: Selectivity index, ratio of IC50 for cytotoxicity against mouse L929 cells to EC50 for inhibition of P-gp in human LCC6MDR cells assessed as reversal of paclitaxel resistance; format: toxicity, cell-based; conditions: L929 cells (cytotoxicity IC50) and LCC6MDR cells (P-gp EC50), probe paclitaxel, read-out: Selectivity Index
[3] = Reversal of P-glycoprotein mediated drug resistance in human LCC6MDR cells assessed as reversal of paclitaxel resistance measured after 5 days by Cell Titer-Glo luminescence assay; format: cell-based; conditions: 120 h
[4] = biological target: T1, ATP-dependent translocase ABCB1 (Homo sapiens, UniProt P08183); assay: Inhibition of P-gp in human LCC6MDR cells assessed as intracellular DOX retention at 2 uM incubated for 60 mins by flow cytometry analysis relative to control; format: cell-based; design: scale not given: the % may be the effect or the level left; conditions: 1 h
[5] = biological target: T1, ATP-dependent translocase ABCB1; assay: Inhibition of P-gp in human LCC6MDR cells assessed as intracellular DOX retention at 2 uM incubated for 90 mins by flow cytometry analysis relative to control; format: cell-based; design: scale not given: the % may be the effect or the level left
[6] = biological target: T1, ATP-dependent translocase ABCB1; assay: Inhibition of P-gp in human LCC6MDR cells assessed as intracellular DOX retention at 2 uM incubated for 120 mins by flow cytometry analysis relative to control; format: cell-based; design: scale not given: the % may be the effect or the level left; conditions: 2 h
[7] = Reversal of P-glycoprotein mediated drug resistance in human LCC6MDR cells assessed as reversal of Dox resistance measured after 5 days by Cell Titer-Glo luminescence assay; conditions: 120 h

T1 sequence (P08183 whole entry): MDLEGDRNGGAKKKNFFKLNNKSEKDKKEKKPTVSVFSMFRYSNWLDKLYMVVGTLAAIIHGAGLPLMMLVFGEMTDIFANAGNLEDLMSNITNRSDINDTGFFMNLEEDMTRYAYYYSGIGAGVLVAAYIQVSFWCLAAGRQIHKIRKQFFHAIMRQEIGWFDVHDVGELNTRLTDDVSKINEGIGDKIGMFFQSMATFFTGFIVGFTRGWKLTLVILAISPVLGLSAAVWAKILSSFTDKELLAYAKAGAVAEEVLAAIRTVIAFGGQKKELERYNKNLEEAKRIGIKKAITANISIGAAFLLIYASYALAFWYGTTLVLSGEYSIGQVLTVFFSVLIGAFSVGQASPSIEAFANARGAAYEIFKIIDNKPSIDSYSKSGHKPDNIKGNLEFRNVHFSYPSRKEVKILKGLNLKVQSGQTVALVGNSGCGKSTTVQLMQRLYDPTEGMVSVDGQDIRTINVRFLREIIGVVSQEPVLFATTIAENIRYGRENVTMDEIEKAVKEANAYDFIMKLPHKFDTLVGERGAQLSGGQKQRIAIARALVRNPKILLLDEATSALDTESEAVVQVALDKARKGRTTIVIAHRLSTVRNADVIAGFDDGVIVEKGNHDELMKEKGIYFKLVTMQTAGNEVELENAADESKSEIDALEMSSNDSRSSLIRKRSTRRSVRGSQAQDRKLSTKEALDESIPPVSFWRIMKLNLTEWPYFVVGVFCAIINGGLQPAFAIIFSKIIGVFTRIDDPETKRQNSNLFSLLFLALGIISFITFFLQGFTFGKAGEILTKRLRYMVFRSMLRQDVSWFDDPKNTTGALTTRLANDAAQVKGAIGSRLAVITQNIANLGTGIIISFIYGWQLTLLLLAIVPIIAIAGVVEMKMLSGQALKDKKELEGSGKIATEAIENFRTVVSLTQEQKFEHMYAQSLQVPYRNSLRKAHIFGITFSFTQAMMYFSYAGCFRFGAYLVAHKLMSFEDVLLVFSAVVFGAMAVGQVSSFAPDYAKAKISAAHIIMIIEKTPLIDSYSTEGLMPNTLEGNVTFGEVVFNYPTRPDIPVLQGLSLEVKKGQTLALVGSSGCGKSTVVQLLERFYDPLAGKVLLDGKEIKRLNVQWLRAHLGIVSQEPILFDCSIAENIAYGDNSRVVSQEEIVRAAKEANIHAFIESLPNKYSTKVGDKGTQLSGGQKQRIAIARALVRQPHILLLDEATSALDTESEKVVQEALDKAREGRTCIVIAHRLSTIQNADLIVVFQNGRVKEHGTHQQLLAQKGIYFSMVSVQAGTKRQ

For `COc1cc(OC)c2c(c1)O[C@@H](c1cc(OC)c(OC)c(OC)c1)[C@H](OC(=O)c1ccc(F)c(NC(=O)c3cc(OC)c(OC)c(OC)c3)c1)C2`, the IC50 [1] was > 100000 nM, the selectivity ratio [2] was > 741 and the EC50 [3] was 135 nM.

For `COc1cc(OC)c2c(c1)O[C@H](c1ccc(OC)c(OC)c1)[C@@H](OC(=O)c1ccc(F)c(NC(=O)c3cc(OC)c(OC)c(OC)c3)c1)C2`, the Activity [4] was 87%, the Activity [5] was 89% and the Activity [6] was 90%.

Molecule `COc1cc(OC)c2c(c1)O[C@H](c1cc(OC)c(OC)c(OC)c1)[C@H](OC(=O)c1ccc(F)c(NC(=O)c3ccc(OC)c(OC)c3)c1)C2` has an EC50 [3] of 159 nM.

With `COc1cc(OC)c2c(c1)O[C@H](c1cc(OC)c(OC)c(OC)c1)[C@@H](OC(=O)c1ccc(F)c(NC(=O)c3ccc(OC)c(OC)c3)c1)C2` the EC50 [3] was 171 nM.

For `COc1cc(OC)c2c(c1)O[C@H](c1ccc(OC)c(OC)c1)[C@@H](OC(=O)c1ccc(F)c(NC(=O)/C=C/c3cc(OC)c(OC)c(OC)c3)c1)C2`, the IC50 [1] was > 100000 nM, the selectivity ratio [2] was > 563 and the EC50 [3] was 178 nM.

With `O=C(O[C@@H]1Cc2c(O)cc(O)cc2O[C@@H]1c1cc(O)c(O)c(O)c1)c1cc(O)c(O)c(O)c1` [EPIGALOCATECHIN GALLATE] the EC50 [3] was > 1000 nM.

`COc1cc(OC)c2c(c1)O[C@H](c1cc(OC)c(OC)c(OC)c1)[C@@H](OC(=O)c1ccc(F)c(NC(=O)c3cc(OC)c(OC)c(OC)c3)c1)C2` gave an EC50 [3] of 140 nM.

`COc1ccc(CCN(C)CCCC(C#N)(c2ccc(OC)c(OC)c2)C(C)C)cc1OC` (stereo not given) showed an EC50 [7] of 254 nM.

With `COc1cc(OC)c2c(c1)O[C@H](c1cc(OC)c(OC)c(OC)c1)[C@H](OC(=O)c1ccc(F)c(NC(=O)c3cc(OC)c(OC)c(OC)c3)c1)C2` the EC50 [3] was 214 nM.
